This note sets out measurements from BindingDB's records for doi:10.1021/acs.jmedchem.8b01719 (Glaxosmithkline, 2019).

Test [1] is described as follows: Inhibition of HCV genotype 1a wild-type NS5B RNA dependent RNA polymerase transfected in human HuH7 Lunet replicon cells assessed as reduction in viral replication after 3 days by steady-glo luciferase reporter gene assay. (In antiviral work, replicon cells carry a viral genome segment that copies itself.)
The nature of test [2]: Inhibition of HCV genotype 1b NS5B RNA dependent RNA polymerase C316N mutant infected in human HuH7 Lunet replicon cells assessed as reduction in viral replication after 48 hrs by steady-glo luciferase reporter gene assay.
A short description of test [3]: Inhibition of HCV genotype 1a NS5B RNA dependent RNA polymerase C316Y mutant transfected in human HuH7 Lunet replicon cells assessed as reduction in viral replication after 3 days by steady-glo luciferase reporter gene assay.
Test [4] in a line: Inhibition of HCV genotype 1b wild-type NS5B RNA dependent RNA polymerase infected in human HuH7 Lunet replicon cells assessed as reduction in viral replication after 48 hrs by steady-glo luciferase reporter gene assay.

One may read the EC50 as the concentration giving half of the maximal effect. Consider `CNC(=O)c1c(-c2ccc(F)cc2)oc2cc(N3C(=O)OC[C@@H]3c3cccc(F)c3)c(C3CC3)cc12`, for which the EC50 is 290 nM in test [1], more than 5000 nM in test [2], more than 5000 nM in test [3] and 1600 nM in test [4].
Regarding `CNC(=O)c1c(-c2ccc(F)cc2)oc2cc(N(c3cc(Cl)c4c(c3)COB4O)S(C)(=O)=O)c(C3CC3)cc12`, the EC50 in test [1] came out at 1.3 nM; in test [2], 2.5 nM; in test [3], 32 nM; in test [4], 2.5 nM.
For `CNC(=O)c1c(-c2ccc(F)cc2)oc2cc(-n3ncnc3-c3ccc(B(O)O)c(F)c3)c(C3CC3)cc12`, the concentration for a half-maximal effect (EC50) in test [1] is 1.1 nM; in test [2], 6.3 nM; in test [3], 46 nM; in test [4], 2 nM.
For `CNC(=O)c1c(-c2ccc(F)cc2)oc2cc(N3C(=O)OC[C@H]3c3ccc(B(O)O)c(F)c3)c(C3CC3)cc12` the same measures were 140 nM, 1600 nM, more than 5000 nM and 200 nM.
For `CNC(=O)c1c(-c2ccc(F)cc2)oc2cc(N(c3cccc(B(O)O)c3)S(C)(=O)=O)c(C3CC3)cc12`, the EC50 was found to be 2.2 nM in test [1], 63 nM in test [2], 1900 nM in test [3] and 6.3 nM in test [4].
Turning to `CNC(=O)c1c(-c2ccc(F)cc2)oc2cc(N3C(=O)OCC3c3ccc(B(O)O)cc3)c(C3CC3)cc12` (centres undefined), the EC50 in test [1] is 8.3 nM; in test [2], 200 nM; in test [3], 2000 nM; in test [4] it was 16 nM.
Consider `CNC(=O)c1c(-c2ccc(F)cc2)oc2cc(N(Cc3ccc(B(O)O)cc3C(F)(F)F)S(C)(=O)=O)c(C3CC3)cc12`, for which the results for the EC50 in test [2] and in test [4] were 19 nM and 5 nM, respectively.
As to `CNC(=O)c1c(-c2ccc(F)cc2)oc2cc(N(c3ccc(B(O)O)c(C(F)(F)F)c3)S(C)(=O)=O)c(C3CC3)cc12`, the EC50 in test [1] worked out at 1.1 nM; in test [2], 7.9 nM; in test [3] it was 17 nM; in test [4], 4 nM.
For `CNC(=O)c1c(-c2ccc(F)cc2)oc2cc(N3C(=O)OCC3c3cccc(B(O)O)c3)c(C3CC3)cc12` (centres undefined), the EC50 in test [2] worked out at 1600 nM; in test [4], 100 nM.
With `CNC(=O)c1c(-c2ccc(F)cc2)oc2cc(-n3ccnc3-c3ccc(B(O)O)c(F)c3)c(C3CC3)cc12`, the 50% effective concentration (EC50) worked out at 18 nM in test [1], 400 nM in test [2], 2000 nM in test [3] and 50 nM in test [4].
As to `CNC(=O)c1c(-c2ccc(F)cc2)oc2cc(N(C3CCc4c(B(O)O)cccc43)S(C)(=O)=O)c(C3CC3)cc12` (centres undefined), the EC50 in test [1] was determined as 11 nM; in test [2], 320 nM; in test [3] it was 1200 nM; in test [4], 40 nM.
As for `CNC(=O)c1c(-c2ccc(F)cc2)oc2cc(-c3ncoc3-c3ccc(B(O)O)c(F)c3)c(C3CC3)cc12`, the EC50 worked out at 3.4 nM in test [1], 6.3 nM in test [2], 30 nM in test [3] and 4 nM in test [4].
Take `CNC(=O)c1c(-c2ccc(F)cc2)oc2cc(N(c3ccc(B(O)O)c(F)c3)S(C)(=O)=O)c(C3CC3)cc12`: the half-maximal effective concentration (EC50) in test [1] turned out to be 1 nM; in test [2], 3.2 nM; in test [3], 39 nM; in test [4], 2 nM.
On the same counts, the results for `CNC(=O)c1c(-c2ccc(F)cc2)oc2cc(-n3nnnc3-c3ccc(B(O)O)c(Cl)c3)c(C3CC3)cc12` are 3.8 nM, 40 nM, 660 nM and 5 nM.
Regarding `CNC(=O)c1c(-c2ccc(F)cc2)oc2cc(-n3nc(C)nc3-c3ccc(B(O)O)c(F)c3)c(C3CC3)cc12`, the EC50 in test [1] amounted to 6 nM; in test [2], 400 nM; in test [3], 630 nM; in test [4], 13 nM.
Regarding `CNC(=O)c1c(-c2ccc(F)cc2)oc2cc(N3C(=O)CCC3c3ccc(B(O)O)cc3)c(C3CC3)cc12` (centres undefined), the EC50 in test [2] worked out at 790 nM; in test [4], 63 nM.
Turning to `CNC(=O)c1c(-c2ccc(F)cc2)oc2cc(N(C3CCc4cc(B(O)O)ccc43)S(C)(=O)=O)c(C3CC3)cc12` (centres undefined), the EC50 in test [1] is 9.2 nM; in test [2], 500 nM; in test [3] it was 4400 nM; in test [4] it was 50 nM.
On the same counts, the results for `CNC(=O)c1c(-c2ccc(F)cc2)oc2cc(N(c3ccc(B(O)O)c(Cl)c3)S(C)(=O)=O)c(C3CC3)cc12` are 1.2 nM, 4 nM, 11 nM and 2.5 nM.
For `CNC(=O)c1c(-c2ccc(F)cc2)oc2cc(N(C3CCCc4cc(B(O)O)ccc43)S(C)(=O)=O)c(C3CC3)cc12` (centres undefined) the same measures were 28 nM, 250 nM, more than 5000 nM and 100 nM.
For `CNC(=O)c1c(-c2ccc(F)cc2)oc2cc(N3C(=O)OCCC3c3ccc(B(O)O)cc3)c(C3CC3)cc12` (centres undefined) the same measures were 56 nM, 400 nM, 310 nM and 50 nM.
With `CNC(=O)c1c(-c2ccc(F)cc2)oc2cc(N(C(C)c3ccc4c(c3)COB4O)S(C)(=O)=O)c(C3CC3)cc12` (centres undefined), the results for the EC50 in test [2] and in test [4] were 830 nM and 25 nM, respectively.
Regarding `CNC(=O)c1c(-c2ccc(F)cc2)oc2cc(N(c3ccc(B(O)O)cc3)S(C)(=O)=O)c(C3CC3)cc12`, the EC50 in test [1] turned out to be 0.9 nM; in test [2], 6.3 nM; in test [3] it was 290 nM; in test [4], 2.5 nM.
Take `CNC(=O)c1c(-c2ccc(F)cc2)oc2cc(N3C(=O)OC[C@@H]3c3ccc(B(O)O)c(F)c3)c(C3CC3)cc12`: the EC50 stood at 2.6 nM in test [1], 5 nM in test [2], 24 nM in test [3] and 2 nM in test [4].
As for `CNC(=O)c1c(-c2ccc(F)cc2)oc2cc(N3C(=O)NCC3c3ccc(B(O)O)cc3)c(C3CC3)cc12` (centres undefined), the half-maximal effective concentration (EC50) was 3200 nM in test [2] and 250 nM in test [4].
For `CNC(=O)c1c(-c2ccc(F)cc2)oc2cc(-c3ncnn3-c3ccc(B(O)O)c(F)c3)c(C3CC3)cc12`, the EC50 in test [1] was 1.2 nM; in test [2], 4 nM; in test [3], 24 nM; in test [4], 2 nM.
On the same counts, the results for `CNC(=O)c1c(-c2ccc(F)cc2)oc2cc(-n3nccc3-c3ccc(B(O)O)c(F)c3)c(C3CC3)cc12` are 2.3 nM, 7.9 nM, 20 nM and 4 nM.
